Patent publication US20040198758A1, “N-heterocyclyl substituted thienyloxy-pyrimidines used as herbicides” (priority 2001, published 2004)

Key:
Assay in all cases: greenhouse post-emergence herbicidal treatment
Format in all cases: in vivo
Conditions in all cases: application rates of 0.25 or 0.125 kg/ha
Amaranthus retroflexus = system: Amaranthus retroflexus
Source text: (§1) The seeds of the test plants were sown separately for each species. For the post-emergence treatment, the test plants were first grown to a height of from 3 to 15 cm, depending on the plant habit, and only then treated with the active compounds which had been suspended or emulsified in water. The test plants were for this purpose either sown directly and grown in the same containers., or they were first grown separately as seedlings and transplanted into the test containers a few days prior to treatment. The application rate for the post-emergence treatment was 0.25 or 0.125 kg of a.s. (active substance)/ha. Depending on the species, the plants were kept at 10-25° C. or 20-35° C. The test period extended over 2 to 4 weeks. During this time, the plants were tended, and their response to the individual treatments was evaluated. Evaluation was carried out using a scale from 0 to 100. 100 means no emergence of the plants, or complete destruction of at least the above-ground parts and 0 means no damage, or normal course of growth. The plants used in the greenhouse experiments were of the following species: [table]

Chenopodium album = system: Chenopodium album
Source text: as §1

Galium aparine = system: Galium aparine
Source text: as §1

Pharbitis purpurea = system: Pharbitis purpurea
Source text: as §1

Polygonum persicaria = system: Polygonum persicaria
Source text: as §1

Cc1cnc(-n2ccc(C(F)(F)F)n2)nc1Oc1csc(C(F)(F)F)c1 [I 1.1, 5-methyl-2-[3-(trifluoromethyl)-1H-pyrazol-1-yl]-4-{[5-(trifluoromethyl)-3-thienyl]oxy}pyrimidine]
very good: post-emergence action against Amaranthus retroflexus (Amaranthus retroflexus) | post-emergence action against Chenopodium album (Chenopodium album) | post-emergence action against Galium aparine (Galium aparine) | post-emergence action against Pharbitis purpurea (Pharbitis purpurea) | post-emergence action against Polygonum persicaria (Polygonum persicaria)
